This test addresses FIH (Homo sapiens, UniProt Q9NWT6). Kind of test: Time-dependent cellular thermal shift assay (CETSA) in Hep3B cells, FIH. The settings on record: for ΔTm at 50 µM: Hep3B. Further details: endogenous in cells; host or cells: Hep3B (SCSP-5045). The test is classed as cell-based. As to the method:
To investigate potential cellular target engagement of NBA-ZG-2291 with FIH, we performed a time-dependent cellular thermal shift assay (CETSA) using Hep3B cells. The results imply that, after 30 min of light activation (365 nm, 16 W), NBA-ZG-2291 effectively stabilizes FIH with a ΔT m of about 9 °C after incubation for 12–48 h (Figure A), indicating sustained engagement with FIH. […] We also performed Western blotting to examine the protein levels of both HIF-1α and HIF-2α in control and NBA-ZG-2291-treated Hep3B cells.
5 NBA-ZG-2991 sustainably engages with FIH and regulates the expression of FIH-dependent HIF target gene EGLN3 in Hep3B cells. (A) The CETSA assay was carried out with Hep3B cells grown in the presence of NBA-ZG-2291 (50 μM) for 12–48 h after 30 min of light activation (365 nm, 16 W). The intensity of the bands for grayscale analysis was referenced to the starting temperature (37 °C). α-Actinin was the sample loading control. n = 2; mean ± SD. […] (E) Correlation heatmap of the NBA-ZG-2291-treated group and the siFIH group by RNA-sequencing analysis. […] The relative fold change with respect to DMSO treated sample is shown (with normalization to HPRT gene levels). Mean ± SEM; n = 3. (G) TG level of NBA-ZG-2291-treated 3T3-L1-derived adipocytes. Mean ± SEM; n = 3. (H) Representative Oil Red O-stained images of the control, ZG-2291-treated, and NBA-ZG-2291-treated 3T3-L1-derived adipocytes. Scale Bar, 30 μm. P values were analyzed by two-way ANOVA comparing with the vehicle/control group (*, P < 0.05; **, P < 0.01; ***, P < 0.001, ****, P < 0.0001). See Methods (Quantitative PCR Analysis of Gene Expression) for assay details. […]
Data acquisition was carried out in Full MS mode, positive ion detection, the acquisition time was 10 min, and the scanning range of the mass-to-charge ratio was 400-2000 m/z.
3.5 Dihedral angle scan analysis
Dihedral angle scans were performed using the Gaussion 16 suite11. The original dihedral angles of the isoxazol-5-yl pyridine fragment were set to 0° via Gaussian View 6.0.16 for dihedral scanning from 0° to 360° in 1° increments at the B3LPY-D3(BJ)/6-31+G(d) level of theory. The resulting 360 conformations and the single-point energy for each conformation were extracted.
3.6 Molecular dynamics (MD) simulations
The process of customizing non-standard residues (NBA-ZG-2291 modified Lys106) in the amber14sb force field involved the following steps: First, the molecular structure of NBA-ZG-2291 was obtained and its topology was generated. […]
The RESP charges were fitted using Multiwfn, wherein the optimized structure and ESP data were inputted to perform the restrained electrostatic potential fitting. The obtained RESP charges were subsequently incorporated into the gaff topology generated by Multwfn. […]

Usually ΔTm stands for the shift of the melting midpoint relative to a reference.

Sequence of FIH (Q9NWT6 whole entry): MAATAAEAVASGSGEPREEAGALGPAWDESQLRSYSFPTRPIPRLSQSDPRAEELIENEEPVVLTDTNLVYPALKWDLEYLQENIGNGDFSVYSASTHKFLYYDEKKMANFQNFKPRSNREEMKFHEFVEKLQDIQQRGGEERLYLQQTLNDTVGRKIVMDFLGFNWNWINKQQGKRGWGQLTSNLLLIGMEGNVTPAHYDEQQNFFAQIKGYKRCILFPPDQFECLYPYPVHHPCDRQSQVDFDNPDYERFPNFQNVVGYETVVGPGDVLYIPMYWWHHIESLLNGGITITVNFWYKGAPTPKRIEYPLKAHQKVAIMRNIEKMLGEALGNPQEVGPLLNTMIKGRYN

For `O=C(O)CNC(=O)c1ncc(-c2cc(-c3ccc(CO)c([N+](=O)[O-])c3)no2)cc1O` [NBA-ZG-2291], the ΔTm at 50 µM (incubation 12 h after 30 min light activation (365 nm, 16 W)) came out at 8.87 °C; the thermal shift (ΔTm) at 50 µM (incubation 24 h after 30 min light activation (365 nm, 16 W)) is 9.28 °C; the ΔTm at 50 µM (incubation 48 h after 30 min light activation (365 nm, 16 W)) is 8.86 °C. Further, the “FIH: ΔTm” value (incubation for 12–48 h after 30 min light activation (365 nm, 16 W)) is “about 9 °C”.

For the origin of these results see paper PMC12123601, “Light-Induced, Lysine-Targeting Irreversible Covalent Inhibition of the Human Oxygen Sensing Hydroxylase Factor Inhibiting HIF (FIH)” (Journal of the American Chemical Society, 2025).
